Test results reported in patent publication US12202835B2, “Substituted aromatic ring-linked dioxinoquinazolines and dioxinoquinolines as kinase inhibitors” (BEIJING SCITECH-MQ PHARMACEUTICALS LIMITED, priority 2018, dated 2025).
pIC50: −log10 of the molar value.

Legend:
MHCC97H cells = test: Assay for inhibiting the proliferation of MHCC97H cells (CCK-8); type: cell-based; conditions: Homo sapiens
Experimental: (§1) In particular, the method of the assay of small molecular compounds for inhibiting cell proliferation is as follows: • 1. Cells cultured to a logarithmic growth phase (adherent cells need to be digested with trypsin and neutralized) were taken, pipetted evenly, transferred to a 15 mL centrifuge tube, and centrifuged at 1000 rpm at room temperature for 4 minutes; • 2. The supernatant was discarded; 5 mL of complete medium was added and pipetted evenly; 10 μL of cell suspension was taken out, mixed well with 10 μL of 0.4% trypan blue, and counted under a cell counter; the proportion of living cells was ensured to be above 90%; • 3. 80 μL of cell suspension per well was seeded into a 96-well plate according to the conditions shown in the attached table, and cultured overnight; in the outer 36 wells of the 96-well plate, no cells were added but only sterile water was added; only the inner 60 wells were used for cell assay and control; • 4. 5×compound dilution: the compounds were serially diluted 3-fold to obtain a total of 9 concentrations; 80-fold overall dilution was completed with complete medium, the resulting concentration was 5 times the final drug concentration, and DMSO concentration was 1.25%; • 5. 20 μL of the corresponding compounds with different concentration gradients were added to each well of assay wells of the 96-well plate; 20 μL of complete medium was added to positive and negative control wells and shaken well; and the final concentration of DMSO in each well was 0.25%; • 6. After 72 hours of incubation, 10 μL of CCK-8 reagent was added to each well and further incubated at 37° C. for 1-2 hours; and the OD value was read at 450 nm; • 7. Cell survival rate (%)=[(As−Ab)/(Ac−Ab)]*100% • As: Assay well (medium containing cells, CCK-8, compound), • Ac: Control well (medium containing cells, CCK-8), • Ab: Blank well (CCK-8, medium without cell and compound), • 8. The values were imported into Graphpad Prism 5 software for IC50 calculation.

TRKA kinase = TRKA kinase (Homo sapiens (Human), UniProt P04629); test: Assay of small molecular compounds for inhibiting the activity of TRKA kinase (LANCE TR-FRET); type: biochemical
TRKA kinase, sequence (P04629 33-796): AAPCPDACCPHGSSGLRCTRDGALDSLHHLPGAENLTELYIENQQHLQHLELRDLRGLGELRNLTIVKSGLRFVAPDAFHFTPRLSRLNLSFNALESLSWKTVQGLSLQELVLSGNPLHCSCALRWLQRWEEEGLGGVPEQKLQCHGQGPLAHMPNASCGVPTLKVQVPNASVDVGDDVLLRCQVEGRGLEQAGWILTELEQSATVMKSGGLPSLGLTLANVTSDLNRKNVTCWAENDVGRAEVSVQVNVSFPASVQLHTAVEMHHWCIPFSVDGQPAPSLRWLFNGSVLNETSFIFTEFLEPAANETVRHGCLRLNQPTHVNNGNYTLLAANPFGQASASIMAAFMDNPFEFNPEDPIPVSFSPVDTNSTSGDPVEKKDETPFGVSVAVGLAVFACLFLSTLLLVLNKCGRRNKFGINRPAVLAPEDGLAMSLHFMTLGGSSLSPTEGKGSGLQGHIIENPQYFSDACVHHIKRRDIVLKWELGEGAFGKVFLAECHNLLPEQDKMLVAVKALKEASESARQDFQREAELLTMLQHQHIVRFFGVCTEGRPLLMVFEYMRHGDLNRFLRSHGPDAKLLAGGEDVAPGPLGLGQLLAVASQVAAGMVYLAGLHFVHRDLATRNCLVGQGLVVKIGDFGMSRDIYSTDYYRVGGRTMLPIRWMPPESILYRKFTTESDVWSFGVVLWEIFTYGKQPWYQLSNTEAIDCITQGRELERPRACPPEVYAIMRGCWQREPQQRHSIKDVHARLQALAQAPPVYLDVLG
Summary of the method: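 TRKA (supplied as 2 nM 2× solution) was pre-reacted with compounds for 5 min at room temperature before a 4× ULight-TK peptide/ATP mix (400 nM/40 μM) started the 60-min dark reaction at 1% DMSO. After stop and 60-min detection, TR-FRET was read.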

Ba/F3-AXL cells = test: Assay for inhibiting the proliferation of Ba/F3-AXL cells (CCK-8); type: cell-based; conditions: 72 hours of incubation, medium with 100 ng/mL hGas6, CCK-8
Experimental: The values were then imported into Graphpad Prism 5 software for curve fitting, and IC50 was calculated.

EBC1 cells = test: Assay for inhibiting the proliferation of EBC1 cells (CCK-8); type: cell-based; conditions: Homo sapiens, EBC-1
Experimental: as §1

Ba/F3 LMNA-NTRK1 cells = test: Assay for inhibiting the proliferation of Ba/F3 LMNA-NTRK1 cells (CCK-8); type: cell-based; conditions: Mus musculus, BaF3
Experimental: as §1, with “5×compound dilution: the compounds were serially diluted 3-fold to obtain a total of 9 concentrations; 80-fold overall dilution was completed with complete medium, the resulting concentration was 5 times the final drug concentration, and DMSO concentration was 1.25%; • 5.” left out

[1] = test system: Ba/F3 LMNA-NTRK1-G595R cells; test: Assay for inhibiting the proliferation of Ba/F3 LMNA-NTRK1-G595R cells (CCK-8); type: cell-based; conditions: Mus musculus, BaF3
Experimental: as §1

c-MET kinase = c-MET kinase (Homo sapiens (Human), UniProt P08581); test: Assay of small molecular compounds for inhibiting the activity of c-MET kinase (LANCE TR-FRET); type: biochemical; conditions: read-out: CMET IC50
c-MET kinase, sequence (P08581 25-1390): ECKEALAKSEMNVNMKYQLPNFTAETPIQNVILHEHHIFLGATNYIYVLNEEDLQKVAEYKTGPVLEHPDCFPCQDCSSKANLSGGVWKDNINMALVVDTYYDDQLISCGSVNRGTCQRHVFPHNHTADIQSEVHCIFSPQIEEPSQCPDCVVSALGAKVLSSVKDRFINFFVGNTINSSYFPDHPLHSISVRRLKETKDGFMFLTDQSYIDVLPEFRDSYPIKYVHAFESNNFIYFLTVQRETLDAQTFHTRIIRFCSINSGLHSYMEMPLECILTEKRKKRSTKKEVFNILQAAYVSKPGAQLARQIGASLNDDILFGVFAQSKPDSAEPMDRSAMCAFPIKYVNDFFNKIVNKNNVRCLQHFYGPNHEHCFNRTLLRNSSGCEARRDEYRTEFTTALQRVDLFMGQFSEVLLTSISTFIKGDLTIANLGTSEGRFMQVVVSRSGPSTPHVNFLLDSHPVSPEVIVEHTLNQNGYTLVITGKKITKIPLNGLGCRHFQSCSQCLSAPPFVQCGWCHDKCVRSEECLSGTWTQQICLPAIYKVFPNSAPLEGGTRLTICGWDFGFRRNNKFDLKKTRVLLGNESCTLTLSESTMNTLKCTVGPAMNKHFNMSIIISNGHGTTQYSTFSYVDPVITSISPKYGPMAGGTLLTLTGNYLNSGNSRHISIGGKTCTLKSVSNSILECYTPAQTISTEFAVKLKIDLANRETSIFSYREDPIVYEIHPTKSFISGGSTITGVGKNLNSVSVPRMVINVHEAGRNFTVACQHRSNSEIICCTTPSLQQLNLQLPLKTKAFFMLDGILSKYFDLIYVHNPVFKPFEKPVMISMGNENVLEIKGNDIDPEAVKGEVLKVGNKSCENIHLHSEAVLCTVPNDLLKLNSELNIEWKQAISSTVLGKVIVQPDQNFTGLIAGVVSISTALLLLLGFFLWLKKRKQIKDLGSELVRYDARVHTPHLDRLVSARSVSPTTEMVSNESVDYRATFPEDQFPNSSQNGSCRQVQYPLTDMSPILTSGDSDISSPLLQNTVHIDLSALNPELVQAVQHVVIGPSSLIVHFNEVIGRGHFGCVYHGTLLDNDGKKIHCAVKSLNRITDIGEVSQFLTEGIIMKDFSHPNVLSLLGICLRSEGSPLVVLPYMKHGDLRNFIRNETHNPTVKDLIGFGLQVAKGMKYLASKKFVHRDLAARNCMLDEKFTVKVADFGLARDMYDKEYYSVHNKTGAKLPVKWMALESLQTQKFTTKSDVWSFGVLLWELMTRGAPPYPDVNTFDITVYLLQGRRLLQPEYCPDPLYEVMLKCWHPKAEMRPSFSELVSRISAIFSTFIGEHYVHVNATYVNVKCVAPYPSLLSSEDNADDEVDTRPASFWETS
Summary of the method: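 Eleven final concentrations from 2500 nM down to 0.042 nM, in 4% DMSO, were tested against human c-MET (2× stock 2 nM), with compound and enzyme premixed for 5 min. The phosphorylation reaction used 4× stock of 400 nM ULight-JAK-1 peptide and 40 μM ATP for 60 min at room temperature, then stop and detection steps. TR-FRET percent inhibition against positive and negative controls gave the IC50.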

VEGFR-2 kinase = VEGFR-2 kinase (Homo sapiens (Human), UniProt P35968); test: Assay of small molecular compounds for inhibiting the activity of VEGFR-2 kinase (LANCE TR-FRET); type: biochemical; conditions: read-out: VEGFR2 IC50
VEGFR-2 kinase, sequence (P35968 20-1356): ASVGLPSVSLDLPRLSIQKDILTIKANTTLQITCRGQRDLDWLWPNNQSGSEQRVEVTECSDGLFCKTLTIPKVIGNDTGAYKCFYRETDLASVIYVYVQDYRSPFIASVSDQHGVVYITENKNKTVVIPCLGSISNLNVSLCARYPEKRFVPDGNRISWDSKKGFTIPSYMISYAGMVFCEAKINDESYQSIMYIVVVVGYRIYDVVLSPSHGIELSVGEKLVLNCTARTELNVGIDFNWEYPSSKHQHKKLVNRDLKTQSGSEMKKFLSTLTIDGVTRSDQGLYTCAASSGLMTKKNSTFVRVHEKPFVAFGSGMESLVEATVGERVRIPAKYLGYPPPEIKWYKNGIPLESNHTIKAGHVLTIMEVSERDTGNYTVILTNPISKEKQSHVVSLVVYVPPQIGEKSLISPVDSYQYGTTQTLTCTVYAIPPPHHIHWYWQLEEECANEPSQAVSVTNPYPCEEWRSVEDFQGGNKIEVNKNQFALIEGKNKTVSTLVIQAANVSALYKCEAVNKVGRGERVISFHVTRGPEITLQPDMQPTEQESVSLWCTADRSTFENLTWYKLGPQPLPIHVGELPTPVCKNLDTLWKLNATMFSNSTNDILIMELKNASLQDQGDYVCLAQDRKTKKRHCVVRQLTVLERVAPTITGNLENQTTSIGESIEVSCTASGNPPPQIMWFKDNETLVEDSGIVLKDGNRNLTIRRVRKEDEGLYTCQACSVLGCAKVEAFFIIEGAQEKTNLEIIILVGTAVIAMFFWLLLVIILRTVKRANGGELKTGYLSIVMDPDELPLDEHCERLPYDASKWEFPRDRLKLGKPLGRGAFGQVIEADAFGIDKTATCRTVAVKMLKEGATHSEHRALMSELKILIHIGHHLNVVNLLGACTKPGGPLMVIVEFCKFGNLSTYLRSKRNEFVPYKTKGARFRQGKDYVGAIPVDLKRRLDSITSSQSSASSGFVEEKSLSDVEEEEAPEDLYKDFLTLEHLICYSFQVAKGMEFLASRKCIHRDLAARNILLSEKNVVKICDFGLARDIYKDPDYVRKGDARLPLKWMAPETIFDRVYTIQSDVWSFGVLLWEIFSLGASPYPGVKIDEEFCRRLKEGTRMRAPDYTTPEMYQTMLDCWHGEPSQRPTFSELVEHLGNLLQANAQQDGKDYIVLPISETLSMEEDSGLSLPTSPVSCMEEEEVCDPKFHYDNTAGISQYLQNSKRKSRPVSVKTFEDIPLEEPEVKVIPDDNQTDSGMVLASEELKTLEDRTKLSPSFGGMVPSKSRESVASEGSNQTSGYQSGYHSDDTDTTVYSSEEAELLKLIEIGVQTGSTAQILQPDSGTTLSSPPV
Experimental: The assay is based on the LANCE TR-FRET technology of Perkin Elmer Inc., and the assay method is as follows: • 1. Dilution of compounds: a total of 11 concentrations were obtained using a 3-fold gradient dilution from the highest concentration of 2500 nM (the maximum final concentration of the drug used in this assay was 2500 nM, and the minimum final concentration was 0.042 nM). • 2. 2.5 μL of the gradient-diluted compounds were taken with a transfer pipette to a 384-well plate. • 3. Addition of enzyme: 5 μL of 2×VEGFR2 kinase solution (with a concentration of 0.5 nM) was taken with a transfer pipette to the corresponding reaction well of the 384-well plate, mixed well and pre-reacted at room temperature for 30 minutes. • 4. 2.5 μL 4× Ultra ULight™-JAK-1 (Tyr1023) Peptide (with a concentration of 200 nM)/ATP (with a concentration of 40 μM) mixture was taken with a transfer pipette to the corresponding reaction well of the 384-well plate. • 5. Negative control: 2.5 μL/well 4× substrate/ATP mixture and 7.5 μL 1× Kinase Assay Buffer were added to the wells of the 384-well plate. • 6. Positive control: 2.5 μL/well 4× substrate/ATP mixture, 2.5 μL/well 1× Kinase Assay Buffer containing 16% DMSO, and 5 μL/well 2×VEGFR-2 kinase solution were added to the 384-well plate. The final concentration of DMSO in the reaction system was 4%. • 7. The mixture was mixed well and then centrifuged and reacted at room temperature in dark for 60 min. • 8. Termination of the enzymatic reaction: 5 μL of 4× stop solution was taken with a transfer pipette to the wells of the 384-well plate, mixed and then centrifuged, and reacted at room temperature for 5 min. • 9. Development of the reaction: 5 μL of 4× detection solution was taken with a transfer pipette to the wells of the 384-well plate for color development, and the mixture was mixed and then centrifuged and reacted at room temperature for 60 min. • 10. The 384-well plate was placed into the Envision plate reader and the signal was detected using the appropriate program. • 11. Analysis and processing of the raw data: The drug concentrations and the corresponding inhibition rates were input into GraphPad Prism5 for calculation, and the inhibition rate of the compounds were calculated as follows: inhibition rate (%)=(reading of positive well−reading of experimental well)/(reading of positive control well−reading of negative control well)×100%. Processing with GraphPad Prism5 software yielded the corresponding IC50 values (the concentration of the compound at which 50% of the highest inhibition of the enzyme is achieved).

MER kinase = MER kinase (Homo sapiens (Human), UniProt Q12866); test: Assay of small molecular compounds for inhibiting the activity of MER kinase (LANCE TR-FRET); type: biochemical
MER kinase, sequence (Q12866 21-999): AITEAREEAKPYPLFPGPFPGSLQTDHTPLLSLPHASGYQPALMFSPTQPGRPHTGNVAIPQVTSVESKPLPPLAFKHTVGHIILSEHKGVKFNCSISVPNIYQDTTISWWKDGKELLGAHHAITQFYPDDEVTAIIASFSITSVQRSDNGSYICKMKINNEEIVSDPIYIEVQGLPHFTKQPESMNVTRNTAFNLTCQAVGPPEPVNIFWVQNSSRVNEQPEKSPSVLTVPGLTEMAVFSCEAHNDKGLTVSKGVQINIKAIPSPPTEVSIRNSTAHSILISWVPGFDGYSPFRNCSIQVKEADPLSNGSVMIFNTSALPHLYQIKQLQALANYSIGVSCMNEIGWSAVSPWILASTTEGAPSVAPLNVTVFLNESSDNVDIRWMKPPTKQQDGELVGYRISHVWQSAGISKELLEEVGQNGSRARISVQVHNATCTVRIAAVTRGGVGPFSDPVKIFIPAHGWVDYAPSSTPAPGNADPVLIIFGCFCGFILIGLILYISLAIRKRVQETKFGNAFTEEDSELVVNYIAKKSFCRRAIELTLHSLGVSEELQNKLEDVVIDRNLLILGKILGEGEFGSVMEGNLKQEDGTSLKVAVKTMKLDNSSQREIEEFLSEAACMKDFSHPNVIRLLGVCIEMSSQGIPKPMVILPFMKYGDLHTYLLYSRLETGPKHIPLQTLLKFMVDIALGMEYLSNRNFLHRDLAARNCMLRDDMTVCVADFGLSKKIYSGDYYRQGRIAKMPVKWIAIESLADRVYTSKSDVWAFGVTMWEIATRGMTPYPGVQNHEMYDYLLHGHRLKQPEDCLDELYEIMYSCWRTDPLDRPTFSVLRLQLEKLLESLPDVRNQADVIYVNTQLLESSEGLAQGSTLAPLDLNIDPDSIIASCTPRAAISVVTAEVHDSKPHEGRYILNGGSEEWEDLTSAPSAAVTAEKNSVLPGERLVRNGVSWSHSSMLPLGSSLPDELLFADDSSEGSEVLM
Summary of the method: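 LANCE TR-FRET readout of ULight-poly GT phosphorylation by MER kinase; compound final range 0.042-2500 nM, 3-fold steps, 5 min enzyme preincubation. Reaction 60 min at room temperature in the dark with substrate/ATP (4× at 200 nM/20 μM), 1% DMSO, then stopped and developed 60 min; IC50 by curve fit.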

Row | pIC50 (TRKA kinase) | pIC50 (Ba/F3-AXL cells) | pIC50 (Ba/F3 LMNA-NTRK1 cells) | pIC50 [1] | pIC50 (c-MET kinase) | pIC50 (VEGFR-2 kinase) | pIC50 (MER kinase) | Structure (SMILES) | pIC50 (MHCC97H cells) | pIC50 (EBC1 cells)
1 | 6.30 to 7.30 | – | – | – | – | – | – | CCn1cc(C(=O)Nc2cc(F)c(Oc3ccnc4cc(OCCOC)c5c(c34)OCCO5)cc2C(C)C)c(=O)n(-c2ccc(F)cc2)c1=O [Example 184, N-(5-fluoro-4-((5-(2-methoxyethoxy)-2,3-dihydro-[1,4]dioxino[2,3-f]quinolin-10-yl)oxy)-2-isopropylphenyl)-3-(4-fluorophenyl)-1-ethyl-2,4-dioxo-1,2,3,4-tetrahydropyrimidine-5-carboxamide] | < 6.00 | –
2 | – | > 7.30 | > 7.30 | – | – | – | – | CCOc1ccn(-c2ccc(F)cc2)c(=O)c1C(=O)Nc1ccc(Oc2ccnc3cc(OCCCN(C)C)c4c(c23)OCCO4)c(F)c1 [Example 61, N-(4-((5-((3-dimethylamino)propoxy)-2,3-dihydro-[1,4]dioxino[2,3-f]quinolin-10-yl)oxy)-3-fluorophenyl)-4-ethoxy-1-(4-fluorophenyl)-2-oxo-1,2-dihydropyridine-3-carboxamide] | ≥ 7.30 | ≥ 7.30
3 | > 7.30 | – | – | – | ≥ 7.30 | – | – | CCc1cc(Oc2ccnc3cc(OCCOC)c4c(c23)OCCO4)c(F)cc1NC(=O)c1cn(C)c(=O)n(-c2ccc(F)cc2)c1=O [Example 181, N-(5-fluoro-4-((5-(2-methoxyethoxy)-2,3-dihydro-[1,4]dioxino[2,3-f]quinolin-10-yl)oxy)-2-ethylphenyl)-3-(4-fluorophenyl)-1-methyl-2,4-dioxo-1,2,3,4-tetrahydropyrimidine-5-carboxamide] | 6.70 to 7.30 | –
4 | 6.30 to 7.30 | – | – | – | ≥ 7.30 | – | – | CCc1cc(Oc2ccnc3cc(OCCOC)c4c(c23)OCCO4)c(F)cc1NC(=O)c1cn(CC)c(=O)n(-c2ccc(F)cc2)c1=O [Example 182, N-(5-fluoro-4-((5-(2-methoxyethoxy)-2,3-dihydro-[1,4]dioxino[2,3-f]quinolin-10-yl)oxy)-2-ethylphenyl)-3-(4-fluorophenyl)-1-ethyl-2,4-dioxo-1,2,3,4-tetrahydropyrimidine-5-carboxamide] | ≥ 7.30 | –
5 | 6.30 to 7.30 | – | – | – | 6.30 to 7.30 | – | – | COCCOc1cc2nccc(Oc3cc(C(C)C)c(NC(=O)c4cn(C)c(=O)n(-c5ccc(F)cc5)c4=O)cc3F)c2c2c1OCCO2 [Example 183, N-(5-fluoro-4-((5-(2-methoxyethoxy)-2,3-dihydro-[1,4]dioxino[2,3-f]quinolin-10-yl)oxy)-2-isopropylphenyl)-3-(4-fluorophenyl)-1-methyl-2,4-dioxo-1,2,3,4-tetrahydropyrimidine-5-carb oxamide] | < 6.00 | –

The next lines start with the compound.

Row | Structure (SMILES) | pIC50 (TRKA kinase) | pIC50 (Ba/F3-AXL cells) | pIC50 (Ba/F3 LMNA-NTRK1 cells) | pIC50 [1] | pIC50 (c-MET kinase) | pIC50 (VEGFR-2 kinase) | pIC50 (MER kinase) | pIC50 (MHCC97H cells) | pIC50 (EBC1 cells)
6 | CCn1cc(C(=O)Nc2ccc(Oc3ccnc4ccc5c(c34)OCCO5)cc2)c(=O)n(-c2ccc(F)cc2)c1=O [Example 159, N-(4-((2,3-dihydro-[1,4]dioxino[2,3-f]quinolin-10-yl)oxy)phenyl)-3-(4-fluorophenyl)-1-ethyl-2,4-dioxo-1,2,3,4-tetrahydropyrimidine-5-carboxamide] | 6.30 to 7.30 | – | 6.00 to 6.70 | < 6.00 | – | – | – | – | –
7 | COc1cc2nccc(Oc3ccc(NC(=O)c4c(OC)ccn(-c5ccc(F)cc5)c4=O)c(Cl)c3)c2c2c1OCCO2 [Example 124, N-(2-chloro-4-((5-methoxy-2,3-dihydro-[1,4]dioxino[2,3-f]quinolin-10-yl)oxy)phenyl)-1-(4-fluorophenyl)-4-methoxy-2-oxo-1,2-dihydropyridine-3-carboxamide] | > 7.30 | > 7.30 | > 7.30 | – | – | 5.30 to 6.30 | ≥ 7.30 | – | –
8 | O=C(Nc1ccc(Oc2ccnc3cc(OCCCN4CCOCC4)c4c(c23)OCCO4)c(F)c1)c1cccn(-c2ccc(F)cc2)c1=O [Example 20, N-(3-fluoro-4-((5-(3-morpholinopropoxy)-2,3-dihydro-[1,4]dioxino[2,3-f]quinolin-10-yl)oxy)phenyl)-1-(4-fluorophenyl)-2-oxo-1,2-dihydropyridine-3-carboxamide] | – | > 7.30 | > 7.30 | – | – | – | – | ≥ 7.30 | ≥ 7.30
9 | CCOc1ccn(-c2ccc(F)cc2)c(=O)c1C(=O)Nc1ccc(Oc2ccnc3cc(OCCCCCCN(C)C)c4c(c23)OCCO4)c(F)c1 [Example 60, N-(4-((5-((6-dimethylamino)hexyloxy)-2,3-dihydro-[1,4]dioxino[2,3-f]quinolin-10-yl)oxy)-3-fluorophenyl)-4-ethoxy-1-(4-fluorophenyl)-2-oxo-1,2-dihydropyridine-3-carboxamide] | – | > 7.30 | > 7.30 | – | – | – | – | 6.70 to 7.30 | ≥ 7.30
